Assay results: patent US4806660A, “Aurone oxypropanolamines” (Pennwalt Corporation, priority 1988, dated 1989)
Counter-ions that a name gives are not always drawn.

System: LTC4-induced contraction of guinea pig ileum
Assay: Test for Inhibition of LTC4-Induced Guinea Pig Ilial Contractions
Details: Cavia porcellus, LTC4 6 nanomolar, isolated guinea pig ilial strips, four replicate tissues, read-out: Percent Inhibition of Contraction at the given Concentration of Test Compound; for inhibition at 1 µM: 1 μMolar; for inhibition at 5 µM: 5 μMolar; for inhibition at 10 µM: 10 μMolar; for inhibition at 50 µM: 50 μMolar
Description: Test for Inhibition of LTC4 -Induced Guinea Pig Ilial Contractions The evaluation of potential anti-allergic compounds for antagonism of the in vitro effects of LTC4 is conducted according to the following procedure. Guinea pig ilial strips are obtained from recently killed animals and hung in isolated tissue baths comprising a balanced solution of salts such as Krebs' solution. After allowing for one hour equilibration of the tissue in the bath, the gram tension (G.T.) on one tissue is arbitrarily set at one. LTC4 (6 nanomolar concentration) is then added to the tissue bath. This induces a long, sustained contraction of the tissue that is measured on the strip chart recorder (the G.T. increases to about 2). After the LTC4 -induced contraction has plateaued and remains stable, increasing amounts of the test compound are added to the bath. If the compound is effective, a decrease in the G.T. (ΔG.T.) from the LTC4 -induced value is seen (e.g., from 2 to 1.5). The percent inhibition at each concentration is calculated according to the formula: [formula] Four replicate tissues are run.

CCCNCC(O)COc1ccc2c(c1)O/C(=C\c1ccccc1)C2=O (stereo not drawn) [Example 1, 6-[2-Hydroxy-3-(propylamino)propoxy]aurone Hydrochloride]
inhibition at 1 µM: 16%
inhibition at 5 µM: 44%
inhibition at 10 µM: 66%
inhibition at 50 µM: 135%

CC(C)NCC(O)COc1ccc2c(c1)O/C(=C\c1ccccc1)C2=O (stereo not drawn) [Example 2, 6-[2-Hydroxy-3-(isopropylamino)propoxy]aurone Hydrochloride]
inhibition at 1 µM: 23%
inhibition at 5 µM: 48%
inhibition at 10 µM: 62%
inhibition at 50 µM: 154%

O=C1/C(=C/c2ccccc2)Oc2cc(OCC(O)CNC3CC3)ccc21 (stereo not drawn) [Example 3, 6-[3-(Cyclopropylamino)-2-hydroxypropoxy]aurone Hydrochloride]
inhibition at 1 µM: 25%
inhibition at 5 µM: 48%
inhibition at 10 µM: 65%
inhibition at 50 µM: 144%
